Assay results published in PMC9508196 (Scientific Reports, 2022).
In brackets after ≈: the same amount, converted by molar mass. Where two headings read alike, the source gives them in different places.

Tests used:
[1] = system: A. baumannii ATCC 19,606; assay: microbe, parasite or virus in culture; conditions: for fold increase of MIC: serial passages at half-MIC
Method: A. baumannii ATCC 19,606 was adjusted to approximately 10^6 CFU/ml in MHB. […] After 24 h incubation, bacterial suspensions of the wells at half-MIC concentration of tested agent were taken and washed 2 times with MHB to prepare the next initial-passage of bacteria. Twenty repeat passages were performed for each tested compound. Along with the test, a negative control was included: the MIC value of bacteria cultured in MHB-deionized water after 20 passages.

[2] = system: A. baumannii B-8.1–2 (MDR); assay: microbe, parasite or virus in culture; format: cell-based, Acinetobacter baumannii
Excerpt: (§1) Ten strains of both Gram-positive and -negative bacteria, including Staphylococcus aureus ATCC 25,923, S. epidermidis ATCC 12,228, Bacillus cereus ATCC 11,778, Listeria monocytogenes 10403S, Salmonella typhimurium ATCC 13,311, Pseudomonas aeruginosa ATCC 27,853, Shigella sonnei ATCC 11,060, A. baumannii ATCC 19,606, Escherichia coli ATCC 25,922 and E. coli O157:H7, were used in this study. Eight clinical isolates of multidrug-resistant (MDR) and extensively drug-resistant (XDR) A. baumannii, isolated from human (blood, sputum, respiratory sample, sterile site sample and urine), were kindly provided by Asst. Prof. Dr. Sakawrat Kanthawong (Faculty of Medicine, Khon Kaen University, Thailand) (Table S1). All bacterial strains, excluding L. monocytogenes 10403S and E. coli, were cultured in tryptic soy broth (TSB). L. monocytogenes was grown in TSB supplemented with 0.6% yeast extract (TSB-YE), and E. coli was cultured in Luria broth (LB). All of bacteria were cultured at 37 °C with continuous shaking at 220 rpm.
(§2) Minimum inhibitory concentration (MIC) of peptides and antibiotics was assessed by a modified version of the broth microdilution method from the Clinical and Laboratory Standards Institute (CLSI) as previously described. In brief, mid-log phase growths of microbial strains were cultured in Müeller-Hinton broth (MHB) with an initial inoculum of 2–8 × 10^5 CFU/mL. Bacteria suspensions were incubated in sterile 96-well plates with test agents at desired concentrations. […] Minimum bactericidal concentration (MBC) determination was performed using a modified version of the colony count assay. In brief, fifty µl of all non-turbid wells from MIC experiments were spread on agar plates. The MBC value was defined as the lowest concentration of peptides with no colony growth on the plate. All assays were performed in triplicate.

[3] = system: A. baumannii A-8.2–1 (XDR); assay: microbe, parasite or virus in culture; format: cell-based, Acinetobacter baumannii
Excerpt: as §1, §2

[4] = system: A. baumannii C-8.2–1 (XDR); assay: microbe, parasite or virus in culture; format: cell-based, Acinetobacter baumannii
Excerpt: as §1, §2

[5] = system: A. baumannii B-8.1–1 (MDR); assay: microbe, parasite or virus in culture; format: cell-based, Acinetobacter baumannii
Excerpt: as §1, §2

[6] = system: A. baumannii C-8.1–2 (MDR); assay: microbe, parasite or virus in culture; format: cell-based, Acinetobacter baumannii
Excerpt: as §1, §2

[7] = system: A. baumannii B-8.2–2 (XDR); assay: microbe, parasite or virus in culture; format: cell-based, Acinetobacter baumannii
Excerpt: as §1, §2

[8] = system: A. baumannii ATCC 19,606; assay: microbe, parasite or virus in culture; format: cell-based, Acinetobacter baumannii
Excerpt: as §1, §2

[9] = system: A. baumannii isolate C-8.1-2; assay: Disk diffusion test (CLSI), antibiotic susceptibility profile; format: cell-based, Acinetobacter baumannii; conditions: CLSI breakpoints
Method: (§3) ^aAntibiotic susceptibility profile of all isolated strains was evaluated by disk diffusion test, using the standard protocol guide of the Clinical and Laboratory Standards Institute (CLSI), and interpreted as S: Susceptible to standard dosing regimen; I: Intermediate; R: Resistant (in accordance with the criteria of CLST breakpoints).

[10] = system: A. baumannii isolate B-8.1-2; assay: as above; format: cell-based, Acinetobacter baumannii; conditions: CLSI breakpoints
Method: as §3

[11] = system: A. baumannii isolate D-10.1-2; assay: as above; format: cell-based, Acinetobacter baumannii; conditions: CLSI breakpoints
Method: as §3

[12] = system: A. baumannii isolate C-8.2-1; assay: as above; format: cell-based, Acinetobacter baumannii; conditions: CLSI breakpoints
Method: as §3

[13] = system: A. baumannii isolate A-8.2-1; assay: as above; format: cell-based, Acinetobacter baumannii; conditions: CLSI breakpoints
Method: as §3

[14] = system: A. baumannii isolate B-8.2-2; assay: as above; format: cell-based, Acinetobacter baumannii; conditions: CLSI breakpoints
Method: as §3

[15] = system: A. baumannii isolate D-10.1-1; assay: as above; format: cell-based, Acinetobacter baumannii; conditions: CLSI breakpoints
Method: as §3

[16] = system: A. baumannii isolate B-8.1-1; assay: as above; format: cell-based, Acinetobacter baumannii; conditions: CLSI breakpoints
Method: as §3

[17] = system: A. baumannii D-10.1–2 (MDR); format: cell-based, Acinetobacter baumannii; conditions: clinical isolate D-10.1–2 (MDR), urine
Excerpt: as §1, §2

[18] = system: A. baumannii D-10.1–1 (MDR); format: cell-based, Acinetobacter baumannii; conditions: clinical isolate D-10.1–1 (MDR), urine
Excerpt: as §1, §2

[19] = clinical isolate B-8.1–2 (MDR), respiratory tract
[20] = clinical isolate A-8.2–1 (XDR), blood
[21] = clinical isolate C-8.2–1 (XDR), sterile site
[22] = clinical isolate B-8.1–1 (MDR), respiratory tract
[23] = clinical isolate C-8.1–2 (MDR), sterile site
[24] = clinical isolate B-8.2–2 (XDR), respiratory tract

With `C[C@@H](O)[C@H]1C(=O)N2C(C(=O)O)=C(S[C@@H]3CN[C@H](C(=O)N(C)C)C3)[C@H](C)[C@H]12` [Meropenem] the MIC ([1]; Acinetobacter baumannii, ATCC19, 24 h, read-out: MIC after 20 passages) was 15.6 µg/mL (≈ 40.8 µM), the “fold increase in MIC compared to the first passage” value ([1]; after passage 20) was 16 fold and the “fold increase of MIC” value ([1]; day 4) was 2 fold. For the same compound, the “fold increase of MIC” value ([1]; day 6) was 4 fold, the “fold increase of MIC” value ([1]; day 11) was “eight” and the MBC ([2]; Acinetobacter baumannii) was 125 µg/mL (≈ 326 µM). The MIC ([2]; Acinetobacter baumannii) was 125 µg/mL (≈ 326 µM), the MBC ([3]; Acinetobacter baumannii) was 62.5 µg/mL (≈ 163 µM) and the MIC ([3]; Acinetobacter baumannii) was 62.5 µg/mL (≈ 163 µM). It also gave an MBC ([4]; Acinetobacter baumannii) of 250 µg/mL (≈ 652 µM), an MIC ([4]; Acinetobacter baumannii) of 125 µg/mL (≈ 326 µM) and an MBC ([5]; Acinetobacter baumannii) of 15.6 µg/mL (≈ 40.8 µM). The MIC ([5]; Acinetobacter baumannii) was 0.98 µg/mL (≈ 2.56 µM), the MBC ([6]; Acinetobacter baumannii) was 125 µg/mL (≈ 326 µM) and the MIC ([6]; Acinetobacter baumannii) was 125 µg/mL (≈ 326 µM). The MBC ([7]; Acinetobacter baumannii) was 125 µg/mL (≈ 326 µM), the MIC ([7]; Acinetobacter baumannii) was 125 µg/mL (≈ 326 µM) and the MBC ([8]; Acinetobacter baumannii, ATCC19) was 0.98 µg/mL (≈ 2.56 µM). For the same compound, the MIC ([8]; Acinetobacter baumannii, ATCC19, 24 h) was 0.98 µg/mL (≈ 2.56 µM), the Antibiotic susceptibility profile [9] was “R” and the Antibiotic susceptibility profile [10] was “R”. For the same compound, the Antibiotic susceptibility profile [11] was “R”, the Antibiotic susceptibility profile [12] was “R” and the Antibiotic susceptibility profile [13] was “R”. For the same compound, the Antibiotic susceptibility profile [14] was “R”, the Antibiotic susceptibility profile [15] was “R” and the Antibiotic susceptibility profile [16] was “S”.
For Colistin, the MBC [2, 19] was 0.98(0.98) µg/ml, the MIC [2, 19] was 0.98(0.98) µg/ml and the MBC [3, 20] was 1.95(1.95) µg/ml. For the same compound, the MIC [3, 20] was 1.95(1.95) µg/ml, the MBC [4, 21] was 0.98(0.98) µg/ml and the MIC [4, 21] was 0.98(0.98) µg/ml. The MBC [5, 22] was 1.95(1.95) µg/ml, the MIC [5, 22] was 1.95(1.95) µg/ml and the MBC [6, 23] was 1.95(1.95) µg/ml. The MIC [6, 23] was 1.95(1.95) µg/ml, the MBC [7, 24] was 1.95(1.95) µg/ml and the MIC [7, 24] was 1.95(1.95) µg/ml. For the same compound, the MIC ([8]; A. baumannii ATCC 19,606, broth microdilution (modified CLSI), MHB, 2–8 × 10^5 CFU/mL, 24 h, 37 °C, triplicate) was 0.98(0.98) µg/ml, the MBC ([8]; A. baumannii ATCC 19,606, colony count from non-turbid MIC wells, triplicate) was 0.98(0.98) µg/ml and the MBC [17] was 1.95(1.95) µg/ml. For the same compound, the MIC [17] was 1.95(1.95) µg/ml, the MBC [18] was 0.98(0.98) µg/ml and the MIC [18] was 0.98(0.98) µg/ml. For the same compound, the Antibiotic susceptibility profile [9] was “S”, the Antibiotic susceptibility profile [10] was “S” and the Antibiotic susceptibility profile [11] was “S”. The Antibiotic susceptibility profile [12] was “S”, the Antibiotic susceptibility profile [13] was “S” and the Antibiotic susceptibility profile [14] was “S”. The Antibiotic susceptibility profile [15] was “S” and the Antibiotic susceptibility profile [16] was “S”.
